Experimental data published in patent US20240132484A1, “BROAD SPECTRUM ANTIVIRAL COMPOUNDS TARGETING THE SKI COMPLEX” (priority 2020, published 2024).
Several values for one entry are separate records, joined by “and”; a condition that tells them apart may be missing. Equal values may be shown once. Read-outs that look alike come from different tables or passages of the source.

Assays:
[1] = system: SARS2; type: cell-based, SARS-CoV-2; settings: for Percentage Inhibition Average 1 μM / Screening data (Relative infection to DMSO controls) Average 1 μM: SARS2, 1 μM; for Screening data (Relative infection to DMSO controls) Average 1 μM / Screening data (Relative infection to DMSO controls) Average 5 μM / Screening data (Relative infection to DMSO controls) Average 10 μM / Screening data (Relative infection to DMSO controls) Average 25 μM / Screening data (Relative infection to DMSO controls) Average 50 μM / Average (relative infection to DMSO over the 5 tested concentrations): 100=DMSO control; for Percentage Inhibition Average 5 μM / Screening data (Relative infection to DMSO controls) Average 5 μM: SARS2, 5 μM; for Percentage Inhibition Average 10 μM / Screening data (Relative infection to DMSO controls) Average 10 μM: SARS2, 10 μM; for Percentage Inhibition Average 25 μM / Screening data (Relative infection to DMSO controls) Average 25 μM: SARS2, 25 μM; for Percentage Inhibition Average 50 μM / Screening data (Relative infection to DMSO controls) Average 50 μM: SARS2, 50 μM; for Average (relative infection to DMSO over the 5 tested concentrations): SARS2, average over 1 to 50 uM
[2] = system: cells (nuclei count); settings: for Relative cell count to DMSO controls, Average 1 μM / Relative cell count to DMSO controls, Average 5 μM / Relative cell count to DMSO controls, Average 10 μM / Relative cell count to DMSO controls, Average 25 μM / Relative cell count to DMSO controls, Average 50 μM: toxicity data, 100=DMSO control; for Relative cell count to DMSO controls, Average (for correlation analysis): average value over the 5 tested concentrations (1 to 50 uM); for Toxicity Data: Average, Mean: average of Exp 1-3 (SMW454, SMW466, SMW480), n 9

| SMILES | SARS2 antiviral activity [1] | Percentage Inhibition Average 1 μM [1] [%] | Screening data (Relative infection to DMSO controls) Average 1 μM [1] | Percentage Inhibition Average 5 μM [1] [%] | Screening data (Relative infection to DMSO controls) Average 5 μM [1] | Percentage Inhibition Average 10 μM [1] [%] | Screening data (Relative infection to DMSO controls) Average 10 μM [1] | Percentage Inhibition Average 25 μM [1] [%] | Screening data (Relative infection to DMSO controls) Average 25 μM [1] | Percentage Inhibition Average 50 μM [1] [%] | Screening data (Relative infection to DMSO controls) Average 50 μM [1] | Average (relative infection to DMSO over the 5 tested concentrations) [1] | Relative cell count to DMSO controls, Average 1 μM [2] | Relative cell count to DMSO controls, Average 5 μM [2] | Relative cell count to DMSO controls, Average 10 μM [2] | Relative cell count to DMSO controls, Average 25 μM [2] | Relative cell count to DMSO controls, Average 50 μM [2] | Toxicity Data, Average, Mean (relative to DMSO control) ([2]; Average of Exp 1-3, 1 uM) [%] | Toxicity Data, Average, Mean (relative to DMSO control) ([2]; Average of Exp 1-3, 5 uM) [%] | Relative cell count to DMSO controls, Average (for correlation analysis) [2] | further results |
| --- | --- | --- | --- | --- | --- | --- | --- | --- | --- | --- | --- | --- | --- | --- | --- | --- | --- | --- | --- | --- | --- |
| Cc1ccc(CN(CCN(C)C)Cc2ccccc2)o1 [SILCS11] | improved activity over SILCS1 | 24.29 | 75.71 | 21.46 | 78.54 | 45.84 | 54.16 | 64.99 | 35.01 | 79.69 | 20.31 | 52.75 | 111.01 | 106.15 | 120.55 | 105.91 | 80.38 | 111.01 | 106.15 | 104.80 | Toxicity Data, Average, Mean (relative to DMSO control) ([2]; Average of Exp 1-3, 10 uM): 120.55%; Toxicity Data, Average, Mean (relative to DMSO control) ([2]; Average of Exp 1-3, 25 uM): 105.91%; Toxicity Data, Average, Mean (relative to DMSO control) ([2]; Average of Exp 1-3, 50 uM): 80.38% |
| CN1CCN(CC(O)COc2cccc(N3CCCCC3)c2CNCCc2ccccc2F)CC1 (stereo not drawn) [SILCS10] | strong activity | 47.40 | 52.60 | 56.27 | 43.73 | 58.42 | 41.58 | 66.00 | 34.00 | 93.61 | 6.39 | 35.66 | 131.94 | 141.21 | 131 | 50.46 | 84.08 | 131.94 | 141.21 | 107.74 | Toxicity Data, Average, Mean (relative to DMSO control) ([2]; Average of Exp 1-3, 10 uM): 131.00%; Toxicity Data, Average, Mean (relative to DMSO control) ([2]; Average of Exp 1-3, 25 uM): 50.46%; Toxicity Data, Average, Mean (relative to DMSO control) ([2]; Average of Exp 1-3, 50 uM): 84.08% |
| Cc1ccc(CN(CCN(C)C)Cc2ccc(CO)o2)s1 [SILCS13] | – | 5.30 | 94.70 | 2.13 | 97.87 | −20.89 | 120.89 | −42.17 | 142.17 | 14.36 | 85.64 | 108.25 | 105.73 | 107.19 | 105.25 | 104.32 | 78.61 | – | – | 100.22 | Percentage Infection Relative to DMSO Control, Average, Mean [1]: 85.64% and 142.17% and 120.89% and 97.87% and 94.70%; Toxicity Data: Average, Mean ([2]; 1 uM): 105.73%; Toxicity Data: Average, Mean ([2]; 5 uM): 107.19%; Toxicity Data: Average, Mean ([2]; 10 uM): 105.25%; Toxicity Data: Average, Mean ([2]; 25 uM): 104.32%; Toxicity Data: Average, Mean ([2]; 50 uM): 78.61% |
